Reference: the supplement of paper PMC10307832

Tests used:
Assay in all cases: relative viability (nuclei count vs DMSO), 5 days (fraction); higher = more cells survive
Bexarotene + Phenformin = compound: C=C(c1ccc(C(=O)O)cc1)c1cc2c(cc1C)C(C)(C)CCC2(C)C [Bexarotene] + N=C(N)NC(=N)NCCc1ccccc1 [Phenformin] (partner 250 µM)
Outline: (§1)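 Lung cancer cell lines were seeded in 1536-well plates and dosed by pin tool the next day, with either a single drug or a fixed anchor-drug dose combined with five library-drug doses (not always all listed) spaced in √10 steps. Five days later, one step fixed the cells and stained their nuclei (final 0.05% Triton X-100, 1% formaldehyde, 1 ug/ml Hoechst), and nuclei were counted on 4× images. Relative viability is the nuclei count in treated wells divided by the count in vehicle wells, and each value is the median of duplicate plates.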

Bexarotene + Trametinib = compound: C=C(c1ccc(C(=O)O)cc1)c1cc2c(cc1C)C(C)(C)CCC2(C)C [Bexarotene] + CC(=O)Nc1cccc(-n2c(=O)n(C3CC3)c(=O)c3c(Nc4ccc(I)cc4F)n(C)c(=O)c(C)c32)c1 [Trametinib] (partner 0.02 µM)
Outline: as §1

Bexarotene + OSI-027 = compound: C=C(c1ccc(C(=O)O)cc1)c1cc2c(cc1C)C(C)(C)CCC2(C)C [Bexarotene] + COc1cccc2cc(-c3nc([C@H]4CC[C@H](C(=O)O)CC4)n4ncnc(N)c34)[nH]c12 [OSI-027] (partner 0.5 µM)
Outline: as §1

Bexarotene = compound: C=C(c1ccc(C(=O)O)cc1)c1cc2c(cc1C)C(C)(C)CCC2(C)C [Bexarotene]
Outline: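 Hoechst staining, done together with fixation and permeabilisation, marked nuclei for 4× imaging and MetaXpress counting. This followed 5 days without medium change after lung cancer cell lines, kept overnight at 37 °C in 1536-well plates, were pinned with five library-drug doses (not always all listed) spaced by √10 on vehicle-anchored plates. Viability is the ratio of treated-well to vehicle-well nuclei, expressed as a median across plates. Plates passed only at control CV below 25% with at least one doubling.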

Cell Line	relative viability (Bexarotene + Phenformin; first compound 0.08 µM)	relative viability (Bexarotene + Phenformin; first compound 0.253 µM)	relative viability (Bexarotene + Phenformin; first compound 0.8 µM)	relative viability (Bexarotene + Phenformin; first compound 2.53 µM)	relative viability (Bexarotene + Phenformin; first compound 8 µM)	relative viability (Bexarotene + Trametinib; first compound 0.08 µM)	relative viability (Bexarotene + Trametinib; first compound 0.253 µM)	relative viability (Bexarotene + Trametinib; first compound 0.8 µM)	relative viability (Bexarotene + Trametinib; first compound 2.53 µM)	relative viability (Bexarotene + Trametinib; first compound 8 µM)	relative viability (Bexarotene + OSI-027; first compound 0.08 µM)	relative viability (Bexarotene + OSI-027; first compound 0.253 µM)	relative viability (Bexarotene + OSI-027; first compound 0.8 µM)	relative viability (Bexarotene + OSI-027; first compound 2.53 µM)	relative viability (Bexarotene + OSI-027; first compound 8 µM)	relative viability (Bexarotene; 0.08 µM)	relative viability (Bexarotene; 0.253 µM)	relative viability (Bexarotene; 0.8 µM)	relative viability (Bexarotene; 2.53 µM)	relative viability (Bexarotene; 8 µM)
NCI-H441	1.03	0.743	0.811	0.864	0.868	0.568	0.481	0.669	0.527	0.633	0.763	0.67	0.645	0.585	0.672	1.31	1.1	1.04	0.969	1
NCI-H460	0.552	0.543	0.494	0.455	0.427	0.153	0.155	0.13	0.199	0.177	0.844	0.727	0.704	0.701	0.618	1.04	0.976	0.986	0.944	0.946
NCI-H520	0.643	0.485	0.514	0.445	0.417	0.668	0.63	0.742	0.662	0.643	0.238	0.207	0.276	0.222	0.241	1.06	0.869	0.865	0.852	0.972
NCI-H596	0.811	0.743	0.747	0.828	0.776	0.862	0.876	0.654	0.762	0.802	0.859	0.69	0.704	0.708	0.634	0.956	0.848	0.957	0.994	0.919
NCI-H647	0.588	0.472	0.519	0.53	0.43	0.663	0.46	0.335	0.433	0.44	0.636	0.627	0.601	0.573	0.624	1.03	1.08	0.896	0.924	0.874
NCI-H650	0.486	0.518	0.472	0.39	0.439	1.17	0.957	1.02	0.972	0.957	0.516	0.521	0.523	0.485	0.494	1.19	1.03	0.986	0.822	0.919
NCI-H661	0.314	0.296	0.261	0.283	0.272	0.58	0.523	0.544	0.543	0.495	0.631	0.665	0.647	0.623	0.635	1.04	0.998	0.934	0.922	0.91
NCI-H727	0.51	0.481	0.574	0.515	0.503	0.377	0.362	0.293	0.382	0.292	0.63	0.657	0.478	0.465	0.612	0.961	0.978	0.916	1.05	1.04
NCI-H838	0.585	0.595	0.504	0.608	0.634	0.551	0.611	0.545	0.657	0.585	0.443	0.391	0.465	0.47	0.554	1.04	1.03	1.04	1.04	0.996
NCI-H1355	0.467	0.481	0.433	0.404	0.447	0.468	0.445	0.373	0.479	0.457	0.41	0.426	0.37	0.387	0.462	1.11	1.04	0.945	0.979	0.96
NCI-H1395	0.456	0.457	0.412	0.415	0.471	1.18	1.03	1.15	0.908	1.1	0.672	0.653	0.616	0.624	0.633	1.06	0.905	1.01	0.75	0.957
NCI-H1437	0.307	0.327	0.301	0.392	0.32	0.552	0.508	0.488	0.482	0.459	0.985	0.819	1.01	0.89	0.982	1.04	1.01	1.03	0.996	1.01
NCI-H1650	0.392	0.408	0.463	0.46	0.403	0.56	0.474	0.614	0.466	0.477	0.612	0.734	0.598	0.726	0.622	1.01	0.897	0.912	0.785	0.844
NCI-H1651	0.446	0.318	0.307	0.357	0.345	0.861	0.867	0.884	0.875	0.827	0.843	0.717	0.71	0.702	0.744	1.08	0.987	1.01	1.02	1
NCI-H1666	0.611	0.531	0.525	0.581	0.561	0.912	0.788	0.839	0.809	0.743	0.774	0.759	0.566	0.747	0.593	1.03	0.924	0.913	0.98	0.857
NCI-H1734	0.414	0.339	0.421	0.335	0.382	0.69	0.732	0.642	0.589	0.57	0.616	0.64	0.591	0.493	0.543	1.04	0.966	0.989	0.881	0.879

Cell Line	relative viability (Bexarotene + Phenformin; first compound 0.08 µM)	relative viability (Bexarotene + Phenformin; first compound 0.253 µM)	relative viability (Bexarotene + Phenformin; first compound 0.8 µM)	relative viability (Bexarotene + Phenformin; first compound 2.53 µM)	relative viability (Bexarotene + Phenformin; first compound 8 µM)	relative viability (Bexarotene + Trametinib; first compound 0.08 µM)	relative viability (Bexarotene + Trametinib; first compound 0.253 µM)	relative viability (Bexarotene + Trametinib; first compound 0.8 µM)	relative viability (Bexarotene + Trametinib; first compound 2.53 µM)	relative viability (Bexarotene + Trametinib; first compound 8 µM)	relative viability (Bexarotene + OSI-027; first compound 0.08 µM)	relative viability (Bexarotene + OSI-027; first compound 0.253 µM)	relative viability (Bexarotene + OSI-027; first compound 0.8 µM)	relative viability (Bexarotene + OSI-027; first compound 2.53 µM)	relative viability (Bexarotene + OSI-027; first compound 8 µM)	relative viability (Bexarotene; 0.08 µM)	relative viability (Bexarotene; 0.253 µM)	relative viability (Bexarotene; 0.8 µM)	relative viability (Bexarotene; 2.53 µM)	relative viability (Bexarotene; 8 µM)
NCI-H1755	0.717	0.679	0.623	0.601	0.622	0.849	0.864	0.834	0.773	0.718	0.777	0.741	0.675	0.637	0.611	1.07	1.15	1.06	0.998	0.982
NCI-H1792	0.276	0.214	0.166	0.135	0.119	0.677	0.46	0.442	0.493	0.345	0.739	0.757	0.681	0.764	0.68	0.904	0.886	0.672	0.632	0.769
NCI-H1793	0.51	0.386	0.36	0.37	0.358	0.395	0.4	0.415	0.397	0.408	0.339	0.319	0.313	0.203	0.311	1.12	0.93	0.754	0.838	0.881
NCI-H1915	0.378	0.373	0.382	0.383	0.36	0.297	0.286	0.266	0.255	0.218	0.67	0.661	0.568	0.594	0.601	1.13	1.05	0.999	0.951	0.904
NCI-H1944	0.278	0.238	0.228	0.238	0.218	0.526	0.517	0.465	0.47	0.425	0.616	0.495	0.48	0.476	0.451	1.29	1.07	1.07	1.25	1.03
NCI-H1975	0.492	0.419	0.436	0.446	0.407	0.387	0.38	0.307	0.331	0.333	0.9	0.811	0.802	0.806	0.722	1.05	1.04	1.09	1.01	1.2
NCI-H1993	0.527	0.553	0.572	0.576	0.557	0.547	0.541	0.507	0.395	0.544	0.588	0.498	0.564	0.54	0.564	1.09	0.919	0.788	0.862	0.832
NCI-H2009	0.554	0.527	0.526	0.479	0.479	0.336	0.331	0.28	0.391	0.413	0.729	0.705	0.584	0.547	0.598	1.21	1.22	1.11	1.08	1.07
NCI-H2023	0.437	0.483	0.443	0.422	0.344	0.719	0.676	0.551	0.497	0.355	0.384	0.391	0.439	0.311	0.378	1.05	0.958	1.01	0.921	0.771
NCI-H2085	0.759	0.646	0.531	0.678	0.718	0.486	0.59	0.4	0.449	0.535	0.841	0.718	0.642	0.675	0.704	0.981	0.979	0.903	0.869	0.901
NCI-H2087	0.527	0.475	0.451	0.433	0.435	0.21	0.166	0.175	0.148	0.171	0.643	0.693	0.663	0.565	0.448	1.08	1.12	1.02	1.03	0.892
NCI-H2126	0.529	0.535	0.526	0.56	0.55	0.639	0.56	0.553	0.619	0.54	0.675	0.71	0.742	0.74	0.683	1.02	1.01	0.954	0.991	0.971
NCI-H2170	0.457	0.403	0.388	0.357	0.361	0.901	0.916	0.886	0.785	0.768	0.699	0.757	0.636	0.683	0.604	0.96	0.969	0.942	0.909	0.831
NCI-H2228	0.31	0.372	0.276	0.264	0.3	0.54	0.641	0.389	0.457	0.417	0.848	0.639	0.359	0.568	0.477	1.02	1.24	1.03	0.819	0.947
NCI-H2342	0.62	0.544	0.605	0.647	0.72	0.927	0.767	0.794	0.825	0.745	0.612	0.6	0.553	0.686	0.707	1.01	0.797	0.965	1.04	1.06
